Experimental data: patent US10344060B2 (priority 2013, dated 2019)

Key:
hNav1.7 = hNav1.7 (Homo sapiens, UniProt Q15858); assay: cell-based; format: cell-based; settings: Table 12; PatchXpress, tonic block; read-out: PX hNav1.7 Tonic IC50
hNav1.4 = hNav1.4 (Homo sapiens, UniProt P35499); assay: cell-based; format: cell-based; settings: Table 12; for IC50: PatchXpress, tonic block, read-out: PX hNav1.4 Tonic IC50; for Nav1.4/Nav1.7: ratio of PX tonic IC50 values
hNav1.4, sequence (P35499 whole entry): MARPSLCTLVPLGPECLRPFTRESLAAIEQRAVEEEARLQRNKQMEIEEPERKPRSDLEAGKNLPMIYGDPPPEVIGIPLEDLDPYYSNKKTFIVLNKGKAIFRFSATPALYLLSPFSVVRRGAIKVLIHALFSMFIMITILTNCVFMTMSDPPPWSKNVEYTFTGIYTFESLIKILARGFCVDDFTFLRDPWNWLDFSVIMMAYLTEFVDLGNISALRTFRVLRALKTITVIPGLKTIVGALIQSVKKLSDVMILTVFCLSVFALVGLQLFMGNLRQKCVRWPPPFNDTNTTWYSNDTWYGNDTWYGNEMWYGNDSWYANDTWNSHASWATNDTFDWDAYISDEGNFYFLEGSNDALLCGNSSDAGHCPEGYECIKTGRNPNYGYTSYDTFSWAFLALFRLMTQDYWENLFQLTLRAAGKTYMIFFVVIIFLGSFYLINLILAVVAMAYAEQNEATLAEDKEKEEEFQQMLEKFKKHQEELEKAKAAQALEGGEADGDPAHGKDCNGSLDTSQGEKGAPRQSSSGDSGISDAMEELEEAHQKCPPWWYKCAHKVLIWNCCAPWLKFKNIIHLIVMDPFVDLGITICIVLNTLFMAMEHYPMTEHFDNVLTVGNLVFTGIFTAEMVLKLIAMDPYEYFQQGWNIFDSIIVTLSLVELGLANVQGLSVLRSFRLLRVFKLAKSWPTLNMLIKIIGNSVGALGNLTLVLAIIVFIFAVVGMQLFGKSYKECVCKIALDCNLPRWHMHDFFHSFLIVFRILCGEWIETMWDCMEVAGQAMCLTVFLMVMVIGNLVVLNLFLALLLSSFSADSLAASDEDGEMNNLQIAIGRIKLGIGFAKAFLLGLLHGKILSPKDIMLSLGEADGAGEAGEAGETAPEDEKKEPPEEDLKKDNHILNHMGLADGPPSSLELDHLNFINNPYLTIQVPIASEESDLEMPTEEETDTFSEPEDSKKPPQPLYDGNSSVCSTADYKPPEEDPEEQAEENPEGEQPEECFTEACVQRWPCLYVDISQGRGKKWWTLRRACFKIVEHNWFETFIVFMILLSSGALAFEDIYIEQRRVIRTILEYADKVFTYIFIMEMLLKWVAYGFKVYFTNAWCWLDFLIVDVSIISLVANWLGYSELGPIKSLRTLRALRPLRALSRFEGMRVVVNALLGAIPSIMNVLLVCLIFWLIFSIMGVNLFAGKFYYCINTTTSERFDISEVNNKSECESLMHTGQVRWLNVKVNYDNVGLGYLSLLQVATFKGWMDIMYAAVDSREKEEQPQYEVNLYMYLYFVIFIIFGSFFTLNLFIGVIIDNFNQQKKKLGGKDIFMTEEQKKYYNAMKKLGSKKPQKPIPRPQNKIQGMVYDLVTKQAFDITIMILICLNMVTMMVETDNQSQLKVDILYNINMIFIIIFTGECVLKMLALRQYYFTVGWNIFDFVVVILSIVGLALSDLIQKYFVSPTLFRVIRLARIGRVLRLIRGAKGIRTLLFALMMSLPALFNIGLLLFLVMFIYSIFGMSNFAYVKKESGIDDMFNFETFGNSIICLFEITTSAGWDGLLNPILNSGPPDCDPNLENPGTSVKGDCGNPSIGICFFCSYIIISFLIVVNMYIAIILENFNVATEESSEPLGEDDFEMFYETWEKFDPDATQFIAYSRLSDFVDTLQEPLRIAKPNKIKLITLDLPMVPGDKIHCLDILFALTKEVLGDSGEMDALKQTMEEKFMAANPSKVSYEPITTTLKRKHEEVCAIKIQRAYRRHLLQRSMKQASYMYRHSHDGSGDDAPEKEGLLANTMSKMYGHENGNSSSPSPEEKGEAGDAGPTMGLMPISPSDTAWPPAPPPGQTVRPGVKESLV

hNav1.7, sequence (Q15858 whole entry): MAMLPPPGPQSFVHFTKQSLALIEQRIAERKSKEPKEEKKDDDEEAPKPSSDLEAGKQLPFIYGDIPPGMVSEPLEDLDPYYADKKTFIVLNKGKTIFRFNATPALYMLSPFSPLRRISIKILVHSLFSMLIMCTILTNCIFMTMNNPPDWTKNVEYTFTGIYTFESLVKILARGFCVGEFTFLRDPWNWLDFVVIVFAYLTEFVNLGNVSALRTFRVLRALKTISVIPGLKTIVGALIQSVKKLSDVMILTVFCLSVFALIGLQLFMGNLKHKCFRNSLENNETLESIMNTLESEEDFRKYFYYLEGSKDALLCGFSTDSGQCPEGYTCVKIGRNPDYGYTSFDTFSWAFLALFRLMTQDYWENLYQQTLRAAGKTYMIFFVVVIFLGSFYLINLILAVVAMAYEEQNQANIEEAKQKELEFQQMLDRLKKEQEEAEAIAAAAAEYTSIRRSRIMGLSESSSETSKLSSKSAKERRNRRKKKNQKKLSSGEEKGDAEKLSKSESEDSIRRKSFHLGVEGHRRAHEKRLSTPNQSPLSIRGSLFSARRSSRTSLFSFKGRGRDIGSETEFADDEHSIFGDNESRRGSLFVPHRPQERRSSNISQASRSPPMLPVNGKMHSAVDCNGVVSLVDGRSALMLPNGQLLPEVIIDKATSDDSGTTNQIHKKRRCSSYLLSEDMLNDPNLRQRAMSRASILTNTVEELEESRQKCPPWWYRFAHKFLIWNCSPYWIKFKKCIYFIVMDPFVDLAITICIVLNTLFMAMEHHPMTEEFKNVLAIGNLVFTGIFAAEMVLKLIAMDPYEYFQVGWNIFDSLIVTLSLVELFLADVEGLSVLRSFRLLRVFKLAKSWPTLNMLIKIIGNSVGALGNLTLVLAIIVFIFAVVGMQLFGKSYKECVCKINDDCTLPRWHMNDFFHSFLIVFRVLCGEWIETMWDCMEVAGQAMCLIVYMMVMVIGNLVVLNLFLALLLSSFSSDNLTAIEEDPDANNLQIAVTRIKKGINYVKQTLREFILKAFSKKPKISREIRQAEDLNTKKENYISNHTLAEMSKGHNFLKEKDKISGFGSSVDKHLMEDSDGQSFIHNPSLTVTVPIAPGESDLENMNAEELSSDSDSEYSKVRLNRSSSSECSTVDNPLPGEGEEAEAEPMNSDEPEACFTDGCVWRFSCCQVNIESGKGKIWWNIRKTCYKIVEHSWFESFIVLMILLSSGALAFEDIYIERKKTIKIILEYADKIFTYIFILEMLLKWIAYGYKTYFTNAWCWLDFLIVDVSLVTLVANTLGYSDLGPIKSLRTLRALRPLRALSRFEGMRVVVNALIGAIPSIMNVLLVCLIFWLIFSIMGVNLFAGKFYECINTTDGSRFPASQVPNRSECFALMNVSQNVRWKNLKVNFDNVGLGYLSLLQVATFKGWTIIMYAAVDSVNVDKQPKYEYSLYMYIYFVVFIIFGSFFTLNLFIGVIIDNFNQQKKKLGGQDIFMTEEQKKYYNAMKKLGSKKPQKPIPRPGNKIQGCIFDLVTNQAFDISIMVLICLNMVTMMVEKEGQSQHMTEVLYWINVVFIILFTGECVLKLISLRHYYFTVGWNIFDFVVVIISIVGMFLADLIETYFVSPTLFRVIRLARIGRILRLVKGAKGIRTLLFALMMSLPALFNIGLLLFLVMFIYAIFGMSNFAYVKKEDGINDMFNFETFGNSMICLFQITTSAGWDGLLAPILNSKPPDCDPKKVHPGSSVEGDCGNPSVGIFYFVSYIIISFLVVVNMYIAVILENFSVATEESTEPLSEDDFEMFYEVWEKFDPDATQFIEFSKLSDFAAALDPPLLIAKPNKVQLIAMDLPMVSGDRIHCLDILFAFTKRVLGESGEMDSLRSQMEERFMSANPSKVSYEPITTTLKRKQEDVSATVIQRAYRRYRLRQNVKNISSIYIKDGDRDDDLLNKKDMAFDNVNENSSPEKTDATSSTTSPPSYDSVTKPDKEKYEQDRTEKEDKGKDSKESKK

SMILES	IC50 (hNav1.7) [nM]	IC50 (hNav1.4) [nM]	Nav1.4/Nav1.7 (hNav1.4)
C#CC[C@H](N)C(=O)N[C@@H](CCC(=O)O)C(=O)N[C@H]1CSSC[C@@H]2NC(=O)[C@@H]3CSSC[C@@H](C(=O)N[C@@H](CCCNC(=N)N)C(=O)N[C@@H](CCCCN)C(=O)N[C@@H](CCC(=O)O)C(=O)N[C@H](C(N)=O)[C@@H](C)CC)NC(=O)[C@H](Cc4c[nH]c5ccccc45)NC(=O)[C@H](CC(C)C)NC(=O)[C@H](CCCCN)NC(=O)[C@H](CSSC[C@H](NC(=O)[C@H]([C@@H](C)O)NC(=O)[C@H](Cc4c[nH]c5ccccc45)NC(=O)[C@H](CCCC)NC(=O)[C@H](Cc4c[nH]c5ccccc45)NC(=O)[C@H](CCCCN)NC(=O)[C@H](CCC(N)=O)NC1=O)C(=O)N[C@@H](CC(=O)O)C(=O)N[C@@H](CCC(=O)O)C(=O)N[C@@H](CCCCN)C(=O)N[C@@H](CCCNC(=N)N)C(=O)N[C@@H](CCC(=O)O)C(=O)N3)NC(=O)[C@H](CCCNC(=N)N)NC(=O)[C@H](CC(C)C)NC(=O)CNC(=O)[C@H](CCC(=O)O)NC2=O [compound 751]	10.2	1920	189
C#CC[C@H](N)C(=O)N[C@@H](Cc1ccc(O)cc1)C(=O)N[C@H]1CSSC[C@@H]2NC(=O)[C@@H]3CSSC[C@@H](C(=O)N[C@@H](CCCNC(=N)N)C(=O)N[C@@H](CCCCN)C(=O)N[C@@H](CCC(=O)O)C(=O)N[C@H](C(=O)NCC(=O)O)[C@@H](C)CC)NC(=O)[C@H](Cc4c[nH]c5ccccc45)NC(=O)[C@H](CC(C)C)NC(=O)[C@H](CCCCN)NC(=O)[C@H](CSSC[C@H](NC(=O)[C@H]([C@@H](C)O)NC(=O)[C@H](Cc4c[nH]c5ccccc45)NC(=O)[C@H](CCCC)NC(=O)[C@H](Cc4c[nH]c5ccccc45)NC(=O)[C@H](CCCCN)NC(=O)[C@H](CCC(N)=O)NC1=O)C(=O)N[C@@H](CC(=O)O)C(=O)N[C@@H](CO)C(=O)N[C@@H](CCCCN)C(=O)N[C@@H](CCCNC(=N)N)C(=O)N[C@@H](C)C(=O)N3)NC(=O)[C@H](CCCNC(=N)N)NC(=O)[C@H](CC(C)C)NC(=O)CNC(=O)[C@H](CCC(=O)O)NC2=O [compound 828]	8.34	1760	211
C#CC[C@H](N)C(=O)N[C@@H](Cc1ccc(O)cc1)C(=O)N[C@H]1C[Se][Se]C[C@@H]2NC(=O)[C@@H]3CSSC[C@@H](C(=O)N[C@@H](CCCNC(=N)N)C(=O)N[C@@H](CCCCN)C(=O)N[C@@H](CCC(=O)O)C(=O)N[C@H](C(N)=O)[C@@H](C)CC)NC(=O)[C@H](Cc4c[nH]c5ccccc45)NC(=O)[C@H](CC(C)C)NC(=O)[C@H](CCCCN)NC(=O)[C@H](CSSC[C@H](NC(=O)[C@H]([C@@H](C)O)NC(=O)[C@H](Cc4c[nH]c5ccccc45)NC(=O)[C@H](CCCC)NC(=O)[C@H](Cc4c[nH]c5ccccc45)NC(=O)[C@H](CCCCN)NC(=O)[C@H](CCC(N)=O)NC1=O)C(=O)N[C@@H](CC(=O)O)C(=O)N[C@@H](CO)C(=O)N[C@@H](CCCCN)C(=O)N[C@@H](CCCNC(=N)N)C(=O)N[C@@H](C)C(=O)N3)NC(=O)[C@H](CCCNC(=N)N)NC(=O)[C@H](CC(C)C)NC(=O)CNC(=O)[C@H](CCC(=O)O)NC2=O [compound 838]	0.949	58.1	61
C#CC[C@H](N)C(=O)N[C@@H](Cc1ccc(O)cc1)C(=O)N[C@H]1CSSC[C@@H]2NC(=O)[C@@H]3CSSC[C@@H](C(=O)N[C@@H](CCCNC(=N)N)C(=O)N[C@@H](CCCCN)C(=O)N[C@@H](CCC(=O)O)C(=O)N[C@H](C(N)=O)[C@@H](C)CC)NC(=O)[C@H](Cc4c[nH]c5ccccc45)NC(=O)[C@H](CC(C)C)NC(=O)[C@H](CCCCN)NC(=O)[C@H](CSSC[C@H](NC(=O)[C@H]([C@@H](C)O)NC(=O)[C@H](Cc4ccccc4)NC(=O)[C@H](CCCC)NC(=O)[C@H](Cc4c[nH]c5ccccc45)NC(=O)[C@H](CCCCN)NC(=O)[C@H](CCC(N)=O)NC1=O)C(=O)N[C@@H](CC(=O)O)C(=O)N[C@@H](CO)C(=O)N[C@@H](CCCCN)C(=O)N[C@@H](CCCNC(=N)N)C(=O)N[C@@H](C)C(=O)N3)NC(=O)[C@H](CCCNC(=N)N)NC(=O)[C@H](CC(C)C)NC(=O)CNC(=O)[C@H](CCC(=O)O)NC2=O [compound 848]	12.6	1010	80
C#CC[C@H](N)C(=O)N[C@@H](Cc1ccc(O)cc1)C(=O)N[C@H]1CSSC[C@@H]2NC(=O)[C@@H]3CSSC[C@@H](C(=O)N[C@@H](CCCNC(=N)N)C(=O)N[C@@H](CCCCN)C(=O)N[C@@H](CCC(=O)O)C(=O)N[C@H](C(N)=O)[C@@H](C)CC)NC(=O)[C@H](Cc4c[nH]c5ccccc45)NC(=O)[C@H]([C@@H](C)CC)NC(=O)[C@H](CCCCN)NC(=O)[C@H](CSSC[C@H](NC(=O)[C@H]([C@@H](C)O)NC(=O)[C@H](Cc4c[nH]c5ccccc45)NC(=O)[C@H](CCCC)NC(=O)[C@H](Cc4c[nH]c5ccccc45)NC(=O)[C@H](CCCCN)NC(=O)[C@H](CCC(N)=O)NC1=O)C(=O)N[C@@H](CC(=O)O)C(=O)N[C@@H](CO)C(=O)N[C@@H](CCCCN)C(=O)N[C@@H](CCCNC(=N)N)C(=O)N[C@@H](C)C(=O)N3)NC(=O)[C@H](CCCNC(=N)N)NC(=O)[C@H](CC(C)C)NC(=O)CNC(=O)[C@H](CCC(=O)O)NC2=O [compound 855]	1.06	193	182
C#CC[C@H](N)C(=O)N[C@@H](Cc1ccc(O)cc1)C(=O)N[C@H]1CSSC[C@@H]2NC(=O)[C@@H]3CSSC[C@@H](C(=O)N[C@@H](CCCNC(=N)N)C(=O)N[C@@H](CCCCN)C(=O)N[C@@H](CCC(=O)O)C(=O)N[C@H](C(N)=O)[C@@H](C)CC)NC(=O)[C@H](Cc4c[nH]c5ccccc45)NC(=O)[C@H](CCCC)NC(=O)[C@H](CCCCN)NC(=O)[C@H](CSSC[C@H](NC(=O)[C@H]([C@@H](C)O)NC(=O)[C@H](Cc4c[nH]c5ccccc45)NC(=O)[C@H](CCCC)NC(=O)[C@H](Cc4c[nH]c5ccccc45)NC(=O)[C@H](CCCCN)NC(=O)[C@H](CCC(N)=O)NC1=O)C(=O)N[C@@H](CC(=O)O)C(=O)N[C@@H](CO)C(=O)N[C@@H](CCCCN)C(=O)N[C@@H](CCCNC(=N)N)C(=O)N[C@@H](C)C(=O)N3)NC(=O)[C@H](CCCNC(=N)N)NC(=O)[C@H](CC(C)C)NC(=O)CNC(=O)[C@H](CCC(=O)O)NC2=O [compound 856]	1.72	102	59
C#CC[C@H](N)C(=O)N[C@@H](Cc1ccc(O)cc1)C(=O)N[C@H]1CSSC[C@@H]2NC(=O)[C@@H]3CSSC[C@@H](C(=O)N[C@@H](CCCNC(=N)N)C(=O)N[C@@H](CCCCN)C(=O)N[C@@H](CCC(=O)O)C(=O)N[C@H](C(N)=O)[C@@H](C)CC)NC(=O)[C@H](Cc4c[nH]c5ccccc45)NC(=O)[C@H](C4CCCCC4)NC(=O)[C@H](CCCCN)NC(=O)[C@H](CSSC[C@H](NC(=O)[C@H]([C@@H](C)O)NC(=O)[C@H](Cc4c[nH]c5ccccc45)NC(=O)[C@H](CCCC)NC(=O)[C@H](Cc4c[nH]c5ccccc45)NC(=O)[C@H](CCCCN)NC(=O)[C@H](CCC(N)=O)NC1=O)C(=O)N[C@@H](CC(=O)O)C(=O)N[C@@H](CO)C(=O)N[C@@H](CCCCN)C(=O)N[C@@H](CCCNC(=N)N)C(=O)N[C@@H](C)C(=O)N3)NC(=O)[C@H](CCCNC(=N)N)NC(=O)[C@H](CC(C)C)NC(=O)CNC(=O)[C@H](CCC(=O)O)NC2=O [compound 859]	0.489	177	361
